Columns and labels:
[1] = 101.33 kPa, Liquid, Vibrating tube method
[2] = activity coefficient (dimensionless); of the first substance listed, at infinite dilution; xn = mol fraction of the nth substance listed; settings: 101.33 kPa, Liquid, Chromatography, x1 = 0

C[N+]1(CCCO)CCOCC1.N#C[N-]C#N [4-(3-hydroxypropyl)-4-methylmorpholinium dicyanamide]
[1]
Settings | mass density [kg/m3]
298.15 K | 1175.4
303.15 K | 1172.4
308.15 K | 1169.4
313.15 K | 1166.5
318.15 K | 1163.6
323.15 K | 1160.7
328.15 K | 1157.9
333.15 K | 1155
338.15 K | 1152.1
343.15 K | 1149.3
348.15 K | 1146.5
353.15 K | 1143.7
358.15 K | 1141
363.15 K | 1138.2
368.15 K | 1135.5

C[n+]1ccn(CCCO)c1.N#CN=C=[N-] [1-(3-hydroxypropyl)-3-methylimidazolium dicyanamide]
[1]
Settings | mass density [kg/m3]
298.15 K | 1171
303.15 K | 1167.8
308.15 K | 1164.6
313.15 K | 1161.4
318.15 K | 1158.2
323.15 K | 1155.1
328.15 K | 1152
333.15 K | 1148.9
338.15 K | 1145.8
343.15 K | 1142.7
348.15 K | 1139.6
353.15 K | 1136.6
358.15 K | 1133.6
363.15 K | 1130.6
368.15 K | 1127.6

Cc1cccc(C)c1 [1,3-dimethylbenzene] + C[N+]1(CCCO)CCOCC1.N#C[N-]C#N
[2]
Settings | activity coefficient
318.15 K | 24.1
328.15 K | 24.1
338.15 K | 24.2
348.15 K | 24.3
358.15 K | 24.3
368.15 K | 24.5

CC(C)=O [acetone] + C[N+]1(CCCO)CCOCC1.N#C[N-]C#N
[2]
Settings | activity coefficient
318.15 K | 2.24
328.15 K | 2.3
338.15 K | 2.37
348.15 K | 2.45
358.15 K | 2.51
368.15 K | 2.59

C1COCCO1 [1,4-dioxane] + C[n+]1ccn(CCCO)c1.N#CN=C=[N-]
[2]
Settings | activity coefficient
318.15 K | 1.73
328.15 K | 1.85
338.15 K | 1.98
348.15 K | 2.09
358.15 K | 2.23
368.15 K | 2.34

CCCC(C)=O [pentan-2-one] + C[n+]1ccn(CCCO)c1.N#CN=C=[N-]
[2]
Settings | activity coefficient
318.15 K | 4.94
328.15 K | 5.14
338.15 K | 5.32
348.15 K | 5.46
358.15 K | 5.67
368.15 K | 5.81

C=CCCCCCCCC [1-decene] + C[n+]1ccn(CCCO)c1.N#CN=C=[N-]
[2]
Settings | activity coefficient
298.15 K | 879
308.15 K | 819
318.15 K | 764
328.15 K | 710
338.15 K | 662
348.15 K | 627
358.15 K | 590

c1ccncc1 [pyridine] + C[N+]1(CCCO)CCOCC1.N#C[N-]C#N
[2]
Settings | activity coefficient
318.15 K | 1.71
328.15 K | 1.8
338.15 K | 1.89
348.15 K | 1.97
358.15 K | 2.06
368.15 K | 2.15

CC(C)O [propan-2-ol] + C[N+]1(CCCO)CCOCC1.N#C[N-]C#N
[2]
Settings | activity coefficient
318.15 K | 2.85
328.15 K | 2.78
338.15 K | 2.72
348.15 K | 2.67
358.15 K | 2.64
368.15 K | 2.6

CCCCCO [pentan-1-ol] + C[N+]1(CCCO)CCOCC1.N#C[N-]C#N
[2]
Settings | activity coefficient
318.15 K | 7.75
328.15 K | 7.49
338.15 K | 7.26
348.15 K | 7.11
358.15 K | 6.88
368.15 K | 6.76

CCCCCC [hexane] + C[n+]1ccn(CCCO)c1.N#CN=C=[N-]
[2]
Settings | activity coefficient
298.15 K | 357
308.15 K | 319
318.15 K | 286
328.15 K | 257
338.15 K | 233

C=CCCCCCC [oct-1-ene] + C[N+]1(CCCO)CCOCC1.N#C[N-]C#N
[2]
Settings | activity coefficient
298.15 K | 1170
308.15 K | 937
318.15 K | 764
328.15 K | 635
338.15 K | 534
348.15 K | 453

c1ccncc1 [pyridine] + C[n+]1ccn(CCCO)c1.N#CN=C=[N-]
[2]
Settings | activity coefficient
318.15 K | 1.33
328.15 K | 1.41
338.15 K | 1.5
348.15 K | 1.58
358.15 K | 1.67
368.15 K | 1.75

C=Cc1ccccc1 [styrene] + C[N+]1(CCCO)CCOCC1.N#C[N-]C#N
[2]
Settings | activity coefficient
318.15 K | 9.96
328.15 K | 10.3
338.15 K | 10.5
348.15 K | 10.8
358.15 K | 11
368.15 K | 11.3

O [water] + C[N+]1(CCCO)CCOCC1.N#C[N-]C#N
[2]
Settings | activity coefficient
318.15 K | 0.364
328.15 K | 0.373
338.15 K | 0.384
348.15 K | 0.395
358.15 K | 0.404
368.15 K | 0.414

CCCc1ccccc1 [propylbenzene] + C[n+]1ccn(CCCO)c1.N#CN=C=[N-]
[2]
Settings | activity coefficient
318.15 K | 26.8
328.15 K | 27.3
338.15 K | 27.6
348.15 K | 27.9
358.15 K | 28.2
368.15 K | 28.4

CCCCCCCCCC [decane] + C[N+]1(CCCO)CCOCC1.N#C[N-]C#N
[2]
Settings | activity coefficient
308.15 K | 2530
318.15 K | 2220
328.15 K | 1980
338.15 K | 1770
348.15 K | 1590
358.15 K | 1430
368.15 K | 1310

CCCC(=O)OC [methyl butanoate] + C[n+]1ccn(CCCO)c1.N#CN=C=[N-]
[2]
Settings | activity coefficient
318.15 K | 9.03
328.15 K | 9.36
338.15 K | 9.67
348.15 K | 9.96
358.15 K | 10.3
368.15 K | 10.6
